Here are results for six compounds from the NIST ThermoML archive (doi:10.1016/j.fluid.2013.07.028).

Usually refractive index stands for the speed of light in vacuum divided by its phase velocity in the sample. The term mass density denotes the mass of a sample divided by its volume.

± gives the expanded uncertainty stated by the source.

Data set [1] is described as follows: refractive index (Na D-line) (dimensionless). The following applies: 298.15 K; 101.33 kPa; Liquid; Standard Abbe refractometry.
For data set [2] the following is noted: 298.15 K; 101.33 kPa; Liquid; Vibrating tube method.

`CCOP(=O)([O-])OCC.CCn1cc[n+](C)c1` [1-ethyl-3-methylimidazolium diethyl phosphate]: the refractive index in data set [1] is 1.47304 ± 0.001. Besides, in data set [2], the mass density is listed as 1148.4 ± 9.2 kg/m3.
For `CC(=O)[O-].CCn1cc[n+](C)c1` [1-ethyl-3-methylimidazolium acetate], in that order: 1.50069 ± 0.001 and 1099.02 ± 8.4 kg/m3.
For `c1ccsc1` [thiophene], in that order: 1.52523 ± 0.00033 and 1058.61 ± 0.15 kg/m3.
For `Cc1ccccc1` [toluene], in that order: 1.49367 ± 0.00033 and 862.18 ± 0.16 kg/m3.
Turning to `c1ccncc1` [pyridine], the refractive index in data set [1] came out at 1.50636 ± 0.00033. For the same compound, in data set [2], the mass density was determined as 978.04 ± 0.12 kg/m3.
For `CCCCCC` [hexane], in that order: 1.37236 ± 0.00037 and 655.09 ± 0.33 kg/m3.
